Source: ChEMBL document CHEMBL1130228, “Potent and selective 1,2,3-trisubstituted indole NPY Y-1 antagonists” (J Med Chem, 1997)

Tests used:
[1] = target: T1, Neuropeptide Y receptor type 2 (Homo sapiens, UniProt P49146); assay: Affinity for human Neuropeptide Y receptor type 2
T1 sequence (P49146 whole entry): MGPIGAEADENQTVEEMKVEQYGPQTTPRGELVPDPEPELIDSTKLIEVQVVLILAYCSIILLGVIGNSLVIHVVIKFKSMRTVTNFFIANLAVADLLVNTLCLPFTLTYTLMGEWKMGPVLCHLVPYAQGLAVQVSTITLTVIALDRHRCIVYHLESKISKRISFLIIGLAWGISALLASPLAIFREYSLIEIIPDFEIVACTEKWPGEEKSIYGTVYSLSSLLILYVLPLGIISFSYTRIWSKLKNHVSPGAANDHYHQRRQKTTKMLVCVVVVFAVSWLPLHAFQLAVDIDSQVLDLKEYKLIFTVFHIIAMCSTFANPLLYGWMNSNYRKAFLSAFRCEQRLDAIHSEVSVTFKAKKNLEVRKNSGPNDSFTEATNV

[2] = target: T2, Neuropeptide Y receptor type 5 (Homo sapiens, UniProt Q15761); assay: Affinity for human Neuropeptide Y receptor type 5
T2 sequence (Q15761 whole entry): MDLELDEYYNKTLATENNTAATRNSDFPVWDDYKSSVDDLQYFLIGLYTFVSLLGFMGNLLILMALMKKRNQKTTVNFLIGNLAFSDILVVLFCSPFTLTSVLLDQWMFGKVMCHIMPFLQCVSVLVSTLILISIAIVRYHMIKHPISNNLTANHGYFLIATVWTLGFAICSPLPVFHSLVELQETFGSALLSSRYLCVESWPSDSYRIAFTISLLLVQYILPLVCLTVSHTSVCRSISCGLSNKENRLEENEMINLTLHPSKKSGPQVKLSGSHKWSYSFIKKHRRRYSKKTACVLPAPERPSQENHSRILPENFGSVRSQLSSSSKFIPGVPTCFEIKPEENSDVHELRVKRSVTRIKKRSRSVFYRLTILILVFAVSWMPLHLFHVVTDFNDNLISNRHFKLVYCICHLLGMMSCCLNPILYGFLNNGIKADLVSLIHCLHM

[3] = target: Neuropeptide Y receptor type 4 (Homo sapiens, UniProt P50391); assay: Affinity for human Neuropeptide Y receptor type 4
[4] = target: T3, Neuropeptide Y receptor type 1 (Homo sapiens, UniProt P25929); assay: Binding affinity for Neuropeptide Y receptor type 1 expressed in AV-12 cells; format: cell-based, AV12
T3 sequence (P25929 whole entry): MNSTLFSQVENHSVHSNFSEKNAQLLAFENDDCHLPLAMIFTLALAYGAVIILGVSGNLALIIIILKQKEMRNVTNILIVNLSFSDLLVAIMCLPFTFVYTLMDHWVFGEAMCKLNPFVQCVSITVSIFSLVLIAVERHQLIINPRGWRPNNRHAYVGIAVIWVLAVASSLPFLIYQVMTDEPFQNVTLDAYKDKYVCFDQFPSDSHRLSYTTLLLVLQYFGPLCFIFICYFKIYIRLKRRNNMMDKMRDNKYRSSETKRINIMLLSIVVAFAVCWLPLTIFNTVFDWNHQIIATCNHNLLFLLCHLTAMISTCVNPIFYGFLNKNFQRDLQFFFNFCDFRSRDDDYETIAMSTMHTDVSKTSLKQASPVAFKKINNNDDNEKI

[5] = test system: SK-N-MC; assay: Ability to reverse NPY-induced intracellular [Ca2+] mobilization in SK-N-MC cells; format: functional, cell-based, Homo sapiens
[6] = target: T3, Neuropeptide Y receptor type 1; assay: Ability to reverse Neuropeptide Y receptor type 1-induced inhibition of forskolin-induced inhibition of forskolin-stimulated cAMP; format: functional
[7] = test system: Mus musculus; assay: Ability to block increase in food consumption elicited by NPY (230 pmol, icv) into lateral ventricle of mice; format: functional

Neuropeptide Y receptor type 4, sequence (P50391 whole entry): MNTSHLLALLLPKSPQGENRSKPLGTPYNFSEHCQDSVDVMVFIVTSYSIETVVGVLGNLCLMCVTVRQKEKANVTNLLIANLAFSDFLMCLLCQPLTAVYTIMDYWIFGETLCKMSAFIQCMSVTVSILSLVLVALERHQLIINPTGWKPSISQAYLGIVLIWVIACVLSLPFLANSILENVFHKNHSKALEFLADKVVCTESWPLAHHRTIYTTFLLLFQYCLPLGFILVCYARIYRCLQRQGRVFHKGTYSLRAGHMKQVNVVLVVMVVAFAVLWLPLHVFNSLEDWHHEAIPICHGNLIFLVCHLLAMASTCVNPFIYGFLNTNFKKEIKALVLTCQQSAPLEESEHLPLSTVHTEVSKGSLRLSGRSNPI

Row | Ki [1] [µM] | Ki [2] [µM] | Ki [3] [µM] | Ki [4] [µM] | Compound | Ki [5] [µM] | Ki [6] [µM] | ED50 [7] [µM]
1 | > 10 | > 10 | > 10 | 0.098 | Clc1ccc(OCc2c(CN3CCC(N4CCCCC4)CC3)c3ccccc3n2CCN2CCCCC2)cc1 |  |  | 
2 | > 10 | > 10 | > 10 | 2.88 | Cn1c(COc2ccc(Cl)cc2)c(CCN2CCCCC2)c2ccccc21 |  |  | 
3 | > 10 | > 10 | > 10 | 1.26 | Cn1c(COc2ccc(Cl)cc2Cl)c(CN2CCCCC2)c2ccccc21 |  |  | 
4 | > 10 | > 10 | > 10 | 0.559 | Cn1c(COc2ccc(Cl)cc2)c(CN2CCC(N3CCCCC3)CC2)c2ccccc21 |  |  | 
5 | > 10 | > 10 | > 10 |  | N=C(N)NCCC[C@@H](NC(=O)C(c1ccccc1)c1ccccc1)C(=O)NCc1ccc(O)cc1 |  |  | 
6 | > 10 | > 10 | > 10 | 2.32 | Cn1c(COc2ccc(Cl)cc2)c(CN2CCCCC2)c2ccccc21 |  |  | 

Second part, the compound before the results:

Row | Compound | Ki [1] [µM] | Ki [2] [µM] | Ki [3] [µM] | Ki [4] [µM] | Ki [5] [µM] | Ki [6] [µM] | ED50 [7] [µM]
7 | Cn1c(COc2ccc(Cl)cc2)c(CCN2CCC(N3CCCCC3)CC2)c2ccccc21 | > 10 | > 10 | > 10 | 0.093 |  |  | 
8 | Cn1c(COc2ccc(Cl)cc2)c(C(=O)CN2CCC(N3CCCCC3)CC2)c2ccccc21 | > 10 | > 10 | > 10 | 0.026 |  |  | 
9 | O=C(CN1CCC(N2CCCCC2)CC1)c1c(COc2ccc(Cl)cc2)n(CCC[C@@H]2CCCNC2)c2ccccc12 | > 10 | > 10 | > 10 | 0.00075 | 0.0032 | 0.0018 | 0.017
10 | Cn1c(COc2ccc(Cl)cc2)c(C(=O)C(=O)N2CCC(N3CCCCC3)CC2)c2ccccc21 | > 10 | > 10 | > 10 | 0.44 |  |  | 
11 | O=C(CN1CCC(N2CCCCC2)CC1)c1c(COc2ccc(Cl)cc2)n(CCC[C@H]2CCCNC2)c2ccccc12 | > 10 | > 10 | > 10 | 0.0014 |  |  | 
12 | O=C(CN1CCC(N2CCCCC2)CC1)c1c(COc2ccc(Cl)cc2)n(CCC2CCNCC2)c2ccccc12 | > 10 | > 10 | > 10 | 0.0019 |  |  | 
